The subject of test [1] is monocytes. The experiment in a line: Leishmanicidal activity of monocytes (cell-mediated Th1 response). The note with it: for immune response after vaccination (summary of Table I): dogs, 1 month after the 3rd injection, with adjuvant QA21. It counts as cell-based, dog. The text has this:
(§1) This evidence was gathered using two techniques: • Assaying the leishmanicidal activity of the monocytes according to the method described previously (Patent FRO1076060); • Detection of dog IgG2, specific to the cyclized peptide E34P and the carboxyterminal group of PSA.
(§2) Biological analysis consisted of: • Serology of specific IgG2 of cyclized peptide E34P and of the carboxyterminal group of PSA; • Leishmaniasis serology: quantitative immunofluorescence of the total IgG (sign of infection); • Leishmanicidal activity of the monocytes (cell-mediated response).

In test [2] the test system is Leishmania. The test is described as follows: Infection test in vaccinated dogs, parasitology from marrow punctures. It counts as in vivo. The note with it: four months after the infection test. The protocol: The infection test consisted of intravenously injecting 10^8 complement-treated promastigotes in metacyclic phase from a healthy dog and 5×10^8 peritoneous macrophages from a healthy dog, infected in vitro by amastigotes.
The promastigotes and the infected macrophages were diluted in sterile physiological serum to a final volume of 1.5 mL. This mixture was made up just prior to injection.
A parasitological examination was carried out from samples taken directly from the dog.
A smear from the bone-marrow puncture was made on a slide. This smear, once fixed in methanol was May Grümwald Giemsa stained and studied under an immersion microscope (×1000).
Some bone-marrow samples were cultivated in a biphasic culture medium NNN (Novy and Mac Neal, 1904, 4. Infec. Dis., 1:1-30) of which RPMI 1640 added to 20% of decomplemented fetal veal serum made up the liquid phase. Random subculturing was carried out every 4 to 6 days. The cultures were regularly studied by photon microscope (×400) for 20 minutes.
The parasitemias were quantified as follows: • +/−: elongated, immobile, refringent forms • +: 1 to 5 mobile/field promastigote forms • ++: >5 mobile/field promastigote forms • +++: cultivated to confluence.
It was necessary to add to these analyses the study of Leishmania by direct observation under microscope and culture in NNN medium from the bone-marrow after the infection test. […]

Test [3] deals with Leishmania promastigotes and amastigotes. The experiment in a line: Inhibition of parasitic growth by serums from vaccinated dogs. The note with it: in vitro. Format: cell-based. The protocol:
Inhibition of the growth of promastigotes and amastigotes in the presence of IgG2 (Patent FR0209506).
The role of the IgG2 on the viability and growth of Leishmania promastigotes and amastigotes was analyzed with immunoserums from dogs vaccinated with the mixture including the cyclized peptide E34P and the serums from the placebo dogs.

Test [4] has as its system cyclized peptide E34P. The test is described as follows: ELISA serology of dog IgG2 vs. cyclised E34P after vaccination. It counts as in vivo. The note with it: non-cyclization at Cys9/Cys15. As to the method:
as §1
This detection was carried out by the ELISA method according to the microtitration technique of Kweider et al. (J. Immunol, 1987, 138, 299) by using an anti IgG2 conjugate. For this method, the peptide is biotinylated before coating onto microplates. This bonding to […] biotin-type molecules has the effect of rendering the cyclized peptide E34P more antigenic. We also use the recombinant protein coding for the carboxyterminal group of the PSA as antigen.
Biological analyses were carried out: • Before any injection • 1 month after the 3rd injection.
as §2
On the technique in general: In an ELISA, binding on a coated surface is turned into a signal by an enzyme label.

Bridges are numbered along the chain shown (N, C = ends). Where no end group is shown, it is not given here.

Two substances from patent publication US20110104064A1, “CYCLIZED NON-NATIVE SYNTHETIC PEPTIDE AND COMPLEX OF PEPTIDES COMPRISING SAID CYCLIZED PEPTIDE, INTENDED TO INDUCE AND TO CH[…] PREVENTION OR TREATMENT OF CONDITIONS IN MAMMALS” (priority 2008, published 2011) can be followed below.

“EDEHKGKYCRLGNDCRTTEPTTTATPRGTPTPAP (EDEHKGKYCRLGNDCRTTEPTTTATPRGTPTPAP; disulfide 9-15) [Group E34P]”: the “immune response after vaccination (summary of Table I)” value in test [1] is on record as “only partial response”. Moreover, in test [2], the “protection after the infection test (summary of Table II)” value is reported as “insufficient to induce an effective response”. For the same substance, the “neutralizing / anti-parasitic role of the induced IgG2” value in test [3] was “induces IgG2 immunoglobulins capable of neutralizing the proliferation”.

For “NON-cyclized peptide E34P: the non-cyclized form of peptide E34P (SEQ ID No. 1 without Cys9/Cys15 disulfide bridge) (EDEHKGKYCRLGNDCRTTEPTTTATPRGTPTPAP; non-cyclized, no disulfide; Fully-synthetic sequence)”, in test [4], the IgG2 synthesis result is given as “only induces slight IgG2 synthesis”. In test [1], the “immune response after vaccination (summary of Table I)” value is “less effective than the cyclized E34P”. In test [1] (peptide used alone or in combination with other peptides), the Th1 stimulation result is reported as “only induces very partial Th1 stimulation”.
